From patent publication US7132446B1, “Isolation of a dimer di-gallate, a potent endothelium-dependent vasorelaxing compound” (University of South Florida, priority 2001, dated 2006)

Tests used:
[1] = system: phenylephrine-contracted endothelium-intact rat aortic rings; assay: Endothelium-dependent relaxation (EDR) bioassay, endothelium-intact aortic rings; format: cell-based; conditions: for threshold concentration (for 10% relaxation): intact aortic rings; for EDR activity (relaxation of endothelium-intact rings): phenylephrine-contracted endothelium-intact rings
Description: Aortic ring preparation and bioassay. The procedure for preparation of rat aortic rings and general aspects of determining mechanical activity has been previously described. Briefly, male Sprague-Dawley rats (200–225 g) were euthanized with an overdose of sodium pentobarbital (100 mg/kg, i.p.), bled, and the thoracic aorta excised, cleaned, and rings (3–4 mm in length) were cut, taking care not to disturb the endothelium. In some instances the endothelium was deliberately removed by gently rubbing the lumen with a curved forceps. The rings were suspended in tissue baths containing a physiologic salt solution (PSS) with the following composition (in millimolar): 118 NaCl; 4.7 KCl; 25 NaHCO3; 1.2 MgSO4; 1.2 NaH2PO4; 0.026 EDTA; 1.5 CaCl2; 11 glucose. The solution was bubbled continuously with O2/CO2 (95%/5%), and maintained at 37° C. Activity was recorded on a Grass polygraph. After equilibration for at least 1 hr under 1.5 g of tension, tissues were contracted submaximally (approximately 80% of Emax) with phenylephrine (˜1 μM), and then 3 μM acetylcholine, a known EDR-active compound, was added to the bath to test for intactness of the endothelium. Rings were washed with PSS three times over the next 45 min. prior to the next sequence. EDR activity of HPLC peaks was determined by first contracting aortic rings with phenylephrine, as above, then generating concentration-response curves for relaxation by adding each peak sample to the bath, beginning with a sub-threshold concentration and adding increasing amounts until maximum relaxation is achieved. To test for endothelium-dependence, denuded aortic rings were used. Successful endothelium removal was established by a lack of relaxation response to 3 μM acetylcholine. […] Statistical methods. Data are presented as means±SEM. EC50s were determined from concentration-response curves, utilizing nonlinear regression analysis software (GraphPad Prizm, San Diego, Calif.).

[2] = system: endothelium-denuded rat aortic rings; assay: Relaxation bioassay, endothelium-denuded aortic rings; format: cell-based; conditions: de-endothelialized rings
Description: Aortic ring preparation and bioassay. The procedure for preparation of rat aortic rings and general aspects of determining mechanical activity has been previously described. Briefly, male Sprague-Dawley rats (200–225 g) were euthanized with an overdose of sodium pentobarbital (100 mg/kg, i.p.), bled, and the thoracic aorta excised, cleaned, and rings (3–4 mm in length) were cut, taking care not to disturb the endothelium. In some instances the endothelium was deliberately removed by gently rubbing the lumen with a curved forceps. The rings were suspended in tissue baths containing a physiologic salt solution (PSS) with the following composition (in millimolar): 118 NaCl; 4.7 KCl; 25 NaHCO3; 1.2 MgSO4; 1.2 NaH2PO4; 0.026 EDTA; 1.5 CaCl2; 11 glucose. The solution was bubbled continuously with O2/CO2 (95%/5%), and maintained at 37° C. Activity was recorded on a Grass polygraph. […] EDR activity of HPLC peaks was determined by first contracting aortic rings with phenylephrine, as above, then generating concentration-response curves for relaxation by adding each peak sample to the bath, beginning with a sub-threshold concentration and adding increasing amounts until maximum relaxation is achieved. […]

[3] = system: blood vessels in vitro; conditions: background statements; cited from earlier work

O=C(O[C@@H]1[C@@H](c2c(O)cc(O)c3c2O[C@H](c2ccc(O)c(O)c2)[C@H](OC(=O)c2cc(O)c(O)c(O)c2)C3)c2c(O)cc(O)cc2O[C@@H]1c1ccc(O)c(O)c1)c1cc(O)c(O)c(O)c1 (single isomer, unassigned; peak f2) [peak F2, epicatechin-galloyl-epicatechin-gallate]
threshold concentration (for 10% relaxation) [1]: approximately 0.35 μg/ml | threshold concentration (for 10% relaxation) ([1]; molar value printed in brackets): ~0.4 µM | EDR activity (relaxation of endothelium-intact rings) [1]: relaxed | EDR activity (relaxation of endothelium-intact rings) ([1]; listed as dimer digallate): substantial EDR activity | EC50 ([1]; phenylephrine-contracted intact rings): 760 nM | EC50 for relaxation of intact aortic rings ([1]; phenylephrine-contracted intact rings, mean±SEM, n=4 rats (3–6 concentration-response curves/rat aorta)): 0.67 ± 0.04 µg/mL | relaxing activity on endothelium-denuded rings [2]: no effect

N=C(N)NCCC[C@H](N)C(=O)O [L-arginine, reference compound]
effect on the B2-di-gallate-induced relaxation of intact rings ([1]; added to the bath after peak F2, L-arginine added after NNA): caused the tissue to relax once again

Oc1cc(O)c2c(c1)OC(c1ccc(O)c(O)c1)C(O)C2O (stereo not drawn) [leucocyanidol]
EDR activity (previous studies) [3]: some activity at lower concentrations
